Measured values from patent US12686664B2, “SOCE inhibitors and therapeutic uses thereof” (Institut National de la Santé et de la Recherche Médicale …, priority 2020, dated 2026).
Like-named read-outs stand apart in the source and are kept apart here.

What was measured:
Type in all cases: cell-based
[1] = tested on: HUVEC cells; assay: HUVEC cell death (Annexin/Propidium Iodide, flow cytometry); conditions: HUVEC (FIG. 8)
Method: FIG. 8. In vitro Effects of 6αa, GSK-7975-A and SKF-93365 on HUVEC Cell Death. […] Cell death was analyzed by flow cytometry following Annexin/Propidium Iodide labeling. Percentages of living cells, necrotic cells and apoptotic cells submitted to GSK-7975A (A), SKF-93365 (B), and 6αa (DAD 3-473) (C) treatment were normalized to the DMSO treatment conditions. Histograms present the amounts of apoptotic cells (annexin/PI positive cells) detected in each experimental condition after treatment with GSK-7975A (D), SKF-93365 (E), and 6αa (DAD 3-473) (F). Data are expressed as mean±SEM of n observations (n=2). Data are analyzed with non parametric Mann Withney analysis, *P<0.05, **P<0.01 and ***P<0.001.

[2] = tested on: store-operated Ca^2+ entry in HEK 651 HS1; assay: Store-operated Ca2+ entry in HEK 651 HS1 cell line; conditions: for Effect on amplitude of SOCE peak: % of inhibition (−) or activation
Method: (§1) The effects of the molecules developed were tested on PLP-B lymphocytes. Store-operated Ca^2+ entry was induced by depletion of Endoplasmic Reticulum Ca^2+ stores (ER Ca^2+ stores) with thapsigargin (Tg) in a Ca^2+-free medium and measured following the addition of 1.8 mM of CaCl2) in the extracellular medium. The results are compared to the results obtained for known SOCE inhibitors SKF-96365, GSK-7975A, Synta 66.
(§2) Then, effects of the molecule that gave the best results in this test (i.e., molecule 6αa) were assessed in two cancer cell lines, namely: HEK 293 and HEK 651 HS1 tumor cell lines.

[3] = tested on: PANC-1 cells; assay: PANC-1 cytotoxicity (Cell Tox green assay); conditions: 5 and 20 μM, 24 hours
Method: (§3) Analysis of Cell Proliferation. For PANC-1 cell proliferation and cell cytotoxicity measurements, […] were seeded in 96 well-plates in 100 μL of DMEM medium. Cells were incubated for 24 hours at 37° C. with 3 different SOCE inhibitors (GSK-7975-A, SKF-93365 and 6αa) at 2 different concentrations (5 and 20 μM) compared to DMSO and untreated cells. Cell proliferation was evaluated using the Cell Titer kit proliferation assay (Promega). Cytotoxicity was evaluated using the Cell Tox green cytotoxicity assay (Promega). All the kits were used following manufacturer recommendations and using a plate reader.

[4] = tested on: store-operated Ca^2+ entry in HEK 293; assay: Store-operated Ca2+ entry in HEK 293 cell line; conditions: for Effect on amplitude of SOCE peak: % of inhibition (−) or activation
Method: as §1, §2

[5] = tested on: store-operated Ca^2+ entry in PLP-B lymphocytes; assay: Store-operated Ca2+ entry after thapsigargin depletion of ER Ca2+ stores in PLP-B lymphocytes; conditions: for inhibition at 0.1 µM / inhibition at 1 µM / inhibition at 10 µM / inhibition at 50 µM / inhibition at 100 µM: PLP-B lymphocytes, % of inhibition (−) or activation
Method: as §1

[6] = tested on: JOK cells; assay: JOK cell viability and apoptosis assays (LIVE/DEAD, Annexin V-FITC/PI)
Method: Cell Viability Assays. JOK cells were treated with test compounds (GSK-7975-A, SKF-93365 and 6αa) or solvent for 48 hours. JOK cells viability was then assessed using LIVE/DEAD cell viability assays kit (Abcam). Differentially labeled live and dead cells with fluorescent dyes are analyzed by flow cytometry.
Apoptosis Assay. Apoptosis of JOK cells were determined by Annexin V-FITC/PI staining (Biolegend) using flow cytometry. The percentage of annexin V-FITC and propidium iodide-[…] cells were assessed using Kaluza 1.3.

[7] = tested on: JOK cells; assay: Migration of JOK cells through HUVEC in transwells; conditions: 5 or 20 μM
Method: Migration Protocol. Migration chambers (transwells) (Transwell 5.0 m polycarbonate membrane Costar) were coated overnight (37° C., 5% CO2) with 100 μL of fibronectine solution containing BSA (1 mg/ml) and LHC Basal Medium. Primary HUmbilical Vein Endothelial Cells (HUVEC) were seeded in each transwell (100 000/well) and cultured for 24 hours (37° C., 5% CO2). To evaluate B cell migration, JOK cells were added (300 000/well) to each transwell upper chamber containing RPMI 1640 medium (BioWest) containing 0.5% BSA and SDF1 (200 ng/ml) was added in the bottom chamber. Cells were cultures in the presence or absence of a test compound (GSK-7975-A, SKF-93365 and 6αa) or solvent. After 24 hours (37° C., 5% CO2), migrated cells were collected in the bottom chambers and counted by flow cytometry. The percentages of migration were calculated for each experimental collection.

[8] = tested on: JOK cells; assay: JOK cell cycle analysis (PI staining, flow cytometry)
Method: Cell Cycle Analysis. JOK cells were incubated with or without test compounds (GSK-7975-A, SKF-93365 and 6αa) for 48 hours and then washed with cold PBS and fixed with 70% ethanol for 30 minutes at room temperature. Cell cycle was analyzed using propidium iodide (PI). Cell-cycle distribution was determined by PI-staining using flow cytometry and analyzed by Kaluza 1.3.

[9] = tested on: SOCE in JOK B cells; assay: Intracellular calcium levels / SOCE in JOK B cells (Fura-2AM, FlexStation 3)
Method: Intracellular calcium levels were monitored at 37° C. using the FlexStation 3™ (Molecular Devices, Berkshire, UK), a fluorescence plate reader measuring time-resolved intracellular Ca^2+ concentration in a 96-well format with cells loaded with the dual-wavelength fluorescent calcium-sensitive dye Fura-2AM.
Intracellular Ca^2+ stores were depleted with 2 μM Thapsigargin (an inhibitor of ER SERCA pumps) under Ca^2+-free conditions to determine the magnitude of intracellular Ca^2+ release. Next, the cells were returned to Ca^2+-containing Hepes-buffered solution to measure SOCE. The magnitude of SOCE was estimated as the maximal values of normalized fluorescence ratio following Ca^2+ re-addition.

[10] = tested on: PANC-1 cells; assay: PANC-1 cell proliferation (Cell Titer kit); conditions: 5 and 20 μM, 24 hours, to a greater extent than GSK-7975A and SKF-93365
Method: as §3

[11] = tested on: JOK cells; assay: JOK cell proliferation assay
Method: Cell Proliferation Assays. Cultured JOK cells were seeded in 96-well culture plates with or without inhibitors. After 48 hours, cell proliferation was assessed using WST-8 assay (Sigma Aldrich). The absorbance was read at 450 nm on a plate reader.

[12] = Lymphocyte, DMSO control 100%, read-out: Effect on amplitude of SOCE Peak
[13] = Lymphocyte, thapsigargin (Tg) peak, read-out: Effect on amplitude of Tg Peak

## COc1ccc(CCOc2ccc(CCn3cnc4ccccc43)cc2)cc1 [6αa DAD 3-473, 1-[4-(4-Methoxyphenethoxy)phenethyl]-1H-benzo[d]imidazole]
[1]
  death of HUVEC cells: does not induce death
[1]; 5 or 20 μM, treated for 48 hours
  apoptosis or necrosis of cells: do not induce apoptosis or necrosis
[2]; 5 μM
  Effect on amplitude of SOCE peak: −5%
[2]; 10 μM
  Effect on amplitude of SOCE peak: −35%
[2]; 50 μM
  Effect on amplitude of SOCE peak: −86%
[2]; average of three assays, ±0.5 μM
  IC50: 25 µM
[3]
  cytotoxicity in cancer PANC-1 cells: induces cytotoxicity
[4]; 1 μM
  Effect on amplitude of SOCE peak: 8%
[4]; 5 μM
  Effect on amplitude of SOCE peak: −15%
[4]; 10 μM
  Effect on amplitude of SOCE peak: −73%
[4]; 50 μM
  Effect on amplitude of SOCE peak: −91%
[4]; Homo sapiens, HEK293, average of three assays, ±0.5 μM
  IC50: 5.1 µM
[5]; [12]
  inhibition at 0.1 µM: 3%
  inhibition at 1 µM: -2%
  inhibition at 10 µM: 24%
  inhibition at 50 µM: 79%
  inhibition at 100 µM: 81%
[5]; [13]
  inhibition at 0.1 µM: -5%
  inhibition at 1 µM: -7%
  inhibition at 10 µM: 5%
  inhibition at 50 µM: 5%
  inhibition at 100 µM: 2%
[5]; Lymphocyte, SOCE in PLP-B lymphocytes, average of three assays, ±0.5 μM
  IC50: 15.4 µM
[5]; comparison of the series tested
  effectiveness as modulator that inhibits SOCE without inhibiting Ca2+ release from ER stores: best candidate
[6]; JOK B cells (FIG. 7)
  death of B cells: does not induce death
[6]; JOK B cells (FIG. 7), 5 or 20 μM, treated for 48 hours
  apoptosis or necrosis of cells: do not induce apoptosis or necrosis
[6]; JOK cells
  cell survival: without significant reduction
[7]
  transendothelial migration through HUVEC of JOK cells: does significantly inhibit
[8]
  cell cycle: affects cell cycle
[9]
  amplitude of Ca2+ release from the endoplasmic stores: not found to be significantly affected
[9]; 5 and 20 μM, compared to control, irrespective of incubation time (5, 15, 30 minutes, 1 hour)
  amplitude of SOCE: significantly reduces
[10]
  PANC-1 proliferation: significantly reduces
[11]
  JOK proliferation: significantly reduces
